Laboratory results: patent US20100221763A1, “Specific Acceptors for Transferases to Saccharides and Method for Obtaining and Using Same” (Health Research, Inc, priority 2005, published 2010)
“And” between values parts separate entries of the source, which are not always exact repeats. Equal entries are not always repeated.

How the values were obtained:
[1] = target: T1, Rat recombinant α2,3(O)ST (Rattus norvegicus, UniProt Q11205); assay: Sialyltransferase assay with cloned α2,3(O)ST; type: biochemical; settings: for Sialyltransferase activity (%) Cloned α2,3(O)ST: Table I, acceptor 7.5 mM, 100% = 40560 CPM (3-O-MeGalβ1,4GlcNAcβ1,6(Galβ1,3)GalNAcα-O-Bn); for Km / Vmax: CMP-NeuAc 150 μM, Lineweaver-Burke plot
T1 construct: purchased Calbiochem
T1 sequence (Q11205 1-350): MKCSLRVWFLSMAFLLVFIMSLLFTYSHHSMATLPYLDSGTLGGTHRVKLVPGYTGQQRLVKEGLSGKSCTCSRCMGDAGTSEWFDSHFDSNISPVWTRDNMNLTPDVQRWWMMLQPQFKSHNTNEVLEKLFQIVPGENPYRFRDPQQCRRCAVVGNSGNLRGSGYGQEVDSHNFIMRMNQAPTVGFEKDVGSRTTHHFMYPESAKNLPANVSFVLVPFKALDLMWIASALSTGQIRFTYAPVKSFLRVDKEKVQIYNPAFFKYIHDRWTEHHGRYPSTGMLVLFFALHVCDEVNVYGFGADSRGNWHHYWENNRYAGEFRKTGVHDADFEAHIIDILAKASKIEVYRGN

[2] = target: T1, Rat recombinant α2,3(O)ST; assay: Sialyltransferase assay with cloned α2,3(O)ST; type: biochemical; settings: for acceptor efficiency for cloned α2,3(O)ST (FIG. 6C): compared to Galβ1,3GalNAcβ1,3Galα-O-Me

CO[C@H]1[C@H](O[C@H]2[C@H](O)[C@@H](CO)OC(O)[C@@H]2NC(C)=O)O[C@H](CO)[C@H](O)[C@@H]1O (stereo partly drawn) [2-O-MeGalβ1,3GlcNAc]
Sialyltransferase activity (%) Cloned α2,3(O)ST [1]: 2.9%

CO[C@H]1[C@H](O[C@H]2[C@H](O)[C@@H](NC(C)=O)C(O)O[C@@H]2CO)O[C@H](CO)[C@H](O)[C@@H]1O (stereo partly drawn) [2-O-MeGalβ1,4GlcNAc]
Sialyltransferase activity (%) Cloned α2,3(O)ST [1]: 0.2%

CO[C@H]1O[C@H](CO)[C@H](O)[C@H](O[C@@H]2O[C@H](CO)[C@H](O)[C@H](O[C@@H]3O[C@H](C)[C@H](O)[C@H](O)[C@H]3O)[C@H]2NC(C)=O)[C@H]1O [D-Fucβ1,3GalNAcβ1,3Galα-O-Me]
acceptor efficiency for cloned α2,3(O)ST (FIG. 6C) ([2]; 0.15 mM): about 50%
acceptor efficiency for cloned α2,3(O)ST (FIG. 6C) ([2]; 0.75 mM): ~100%
Sialyltransferase activity (%) Cloned α2,3(O)ST ([2]; Table I, acceptor 7.5 mM, 100% = 40560 CPM (3-O-MeGalβ1,4GlcNAcβ1,6(Galβ1,3)GalNAcα-O-Bn), listed as D-Fucβ1,3GalNAcβ1,3-Gal-O-Me): 115.6%
Km [1]: 560 µM
Vmax [1]: 1873 pmol/h
Sialyltransferase activity (%) Cloned α2,3(O)ST [1]: 115.6^3%

C=CCO[C@H]1O[C@H](CO)[C@H](O)[C@H](O[C@@H]2O[C@H](CO)[C@H](O)[C@H](O)[C@H]2O)[C@H]1NC(C)=O [Galβ1,3GalNAcα-O—Al]
Sialyltransferase activity (%) Cloned α2,3(O)ST [1]: 112.0%

CO[C@H]1O[C@H](CO)[C@H](O)[C@H](O[C@@H]2O[C@H](CO)[C@H](O)[C@H](O[C@@H]3O[C@H](CO)[C@H](O)[C@H](O)[C@H]3O)[C@H]2NC(C)=O)[C@H]1O [Galβ1,3GalNAcβ1,3Galα-O-Me]
Km [1]: 120 µM
Vmax [1]: 1293^13 pmol/h
Sialyltransferase activity (%) Cloned α2,3(O)ST [1]: 120.8% and 120.8^2%
